Here are results for 4 compounds from PMC9695592, “Phenotypic Evaluation of Nucleoside Analogues against Trypanosoma cruzi Infection: In Vitro and In Vivo Approaches” (Molecules, 2022).

The test system of one assay is H9C2 2D cultures. The experiment in a line: Cardiotoxicity on H9C2 monolayers (2D), PrestoBlue. Format: cell-based. Particulars: Rattus norvegicus. An excerpt: (§1) L929 cell lines were used to evaluate the effect of the nucleoside derivatives on the cellular viability of mammalian host cells and to assess their activity against intracellular forms of T. cruzi (Tulahuen strain expressing E. coli β-galactosidase gene, DTU VI) as reported. 2D and 3D culture systems of rat cardiomyoblast cell lines (H9C2(2-1)) were used to evaluate cardiotoxicity and to test the derivatives’ activity on intracellular forms (Y strain, DTU II). In all assays, the cell cultures were maintained at 37 °C under an atmosphere of 5% CO2.
L929 cells seeded in sterile 96-well microtiter plates were exposed or not to increasing concentrations (up to 200 µM) of the compounds. […] Cellular viability was assessed through AlamarBlue® (resazurin sodium salt) colorimetric assay, and the results were expressed as % reduction in cell growth/viability compared to untreated control, and an IC50 value determined. For the assays using H9C2 cultures, 25 × 10^3 cells/well were seeded in a 96-well microtiter plates (flat and U bottoms, precoated with agarose 1% for preparing 2- and 3D matrices, respectively) and maintained at 37 °C [48, 54].
[…] Cell viability was measured using the PrestoBlue® (PB) colorimetric assay, the results evaluated as % reduction in cell growth/viability compared to untreated control, and an IC50 value determined. The data results from at least two independent experiments done in at least duplicates.

The test system of assay [1] is promastigotes of Lmex^ΔNT1+TcrNT2. The assay is described as follows: Resazurin-based assay on Cas9^ΔNT1+TcrNT2 promastigotes. Format: cell-based, Leishmania mexicana. The settings on record: for EC50: Leishmania mexicana, read-out: Lmex^ΔNT1+TcrNT2 EC50 (μM). On the procedure:
(§2) Bloodstream trypomastigotes of the Y strain (DTU II) were obtained by cardiac puncture of infected Swiss Webster mice on the parasitemia peak to perform drug sensitivity assays. Trypomastigote forms of the Tulahuen-β gal strain were collected from the supernatant of previously infected L929 cell cultures (host/parasite cell ratio 10:1). The intracellular forms T. cruzi were studied by the infection of L929 and H9C2 (2D and 3D) cell cultures infected for 48 and 24 h with trypomastigotes of Tulahuen-β gal and Y strains, respectively. The Leishmania mexicana-Cas9 T7 strain (LmexCas9) was derived from L. mexicana WT promastigotes by expression of the Streptococcus pyogenes Cas9 nuclease gene ‘Cas9′ and maintained on 32 μg/mL hygromycin [51]. This strain and the derived strains Cas9^ΔNT1 and Cas9^ΔNT1+TcrNT2 were cultured in HOMEM medium supplemented with 10% of FBS and 1% Penicillin-Streptomycin antibiotic in unvented flasks at 25 °C [52]. The Cas9^ΔNT1 strain is identical to Cas9 except that the LmexNT1.1/NT1.2 locus encoding the L. mexicana adenosine/ pyrimidine transporters was excised using Cas9 [17, 40]. Cas9^ΔNT1+TcrNT2 is the further modification of that strain by the expression of the T. cruzi nucleoside transporter 2 (TcrNT2) gene in it, using the vector pNUS-HcN [53]. Appropriate antibiotics were added for the selection and maintenance of transfectants.
(§3) The EC50 values for nucleoside analogues against Leishmania mexicana promastigotes of the Cas9, Cas9^ΔNT1 and Cas9^ΔNT1+TcrNT2 strains used a resazurin-based assay, as described. Briefly, the assays were performed in standard HOMEM medium and culture conditions, in white opaque 96-well plates. For each test compound (stored as a 40 mM stock solution in 100% DMSO at −20 °C), a doubling dilution was performed over 2 rows of the plate, keeping the last well free as no-drug control with HOMEM only (23 doubling dilutions; highest concentration 100 µM). To each well, 100 µL of HOMEM containing 2 × 10^5 cells of the appropriate L. mexicana line was added, and the plates incubated for 72 h at 25 °C, followed by the addition of 20 µL of resazurin solution and further incubation for 48 h. Fluorescence was read on a FLUOstar OPTIMA plate reader (BMG Labtech, Germany), at an excitation wavelength of 544 nm and an emission wavelength of 620 nm. The EC50 values were determined by the GraphPad Prism 8.0 software using an equation for a sigmoid curve with variable slope. Pentamidine was used as positive control, and every experiment was independently performed at least 3 times independently.

For assay [2], the system named is promastigotes of Cas9^ΔNT1. The assay is described as follows: Resazurin-based assay on Cas9^ΔNT1 promastigotes. Format: cell-based, Leishmania mexicana. As to the method: as §2, §3
For the next assay, the system named is L929 cells. The experiment in a line: Toxicity on L929 cells (AlamarBlue). Format: cell-based. Particulars: Mus musculus, L929, 168 h; seven days of compound incubation; 95% confidence interval in brackets.
Source text: as §1
L929 cells seeded in sterile 96-well microtiter plates were exposed or not to increasing concentrations (up to 200 µM) of the compounds. After seven days of incubation, the cell growth of treated cultures was compared to untreated control cells (100% cell growth). Cellular viability was assessed through AlamarBlue® (resazurin sodium salt) colorimetric assay, and the results were expressed as % reduction in cell growth/viability compared to untreated control, and an IC50 value determined. For the assays using H9C2 cultures, 25 × 10^3 cells/well were seeded in a 96-well microtiter plates (flat and U bottoms, precoated with agarose 1% for preparing 2- and 3D matrices, respectively) and maintained at 37 °C [48, 54].

Assay [3] concerns intracellular forms of T. cruzi (Y strain) in 2D H9C2. The assay is described as follows: Activity against T. cruzi (Y strain) infection of H9C2 monolayers (2D). Type of assay: cell-based, Trypanosoma cruzi. The settings on record: 10 µM, seven days of incubation, 95% confidence interval in brackets.
Source text: as §1, §2
In an initial step, nucleoside derivatives were assayed against intracellular forms of Tulahuen-β gal strain in L929 cell lines. Assays were performed in sterile 96-well microtiter plates with 4 × 10^3 cells/well and 4 × 10^4 parasites/well (host/parasite cell ratio 1:10). […] Parasite burden was analyzed by adding the substrate CPRG (chlorophenol red ß-D-galactopyranoside) followed by measurements (spectrophotometrically) at 570 nm. The results were expressed as percentage of reduction in parasite growth compared to untreated cells, and EC50 values were calculated. […] After seven days of treatment, the cultures were fixed, stained with Giemsa, and 200 cells were quantified by light microscopy. The results were expressed as % of reduction in parasite burden. […]

[4] abbreviates: H9c2, 24 h, read-out: H9C2 IC50 µM.
Where [5] appears, read: H9c2, 168 h, read-out: Cardiotoxic profile IC50 (µM) 2D.
Where [6] appears, read: Leishmania mexicana, read-out: Cas9^ΔNT1 EC50 (μM), promastigotes, resazurin-based assay, highest concentration 100 µM.

Read-outs that look alike come from different tables or passages of the source.

For `Nc1ncnc2c1c(-c1ccc(Cl)c(F)c1)cn2[C@@H]1O[C@H](CO)[C@@H](O)[C@H]1O` [FH10714, 7-(3-fluoro,4-chlorophenyl)tubercidin], the IC50 in the assay with H9C2 2D cultures (setting [4]) was more than 300 µM; with H9C2 2D cultures (setting [5]) it was 41.8 µM; in the assay on L929 cells, 55.8 µM. The EC50 in assay [1] and in assay [2] (setting [6]) was more than 100 µM throughout. Further, in assay [3], the “% of Death Rate by Light Microscopy Quantification 2D” value (“% of Death Rate” below) stood at 100%.
In the case of `Nc1ncnc2c1c(-c1ccc(F)c(F)c1)cn2[C@@H]1O[C@H](CO)[C@@H](O)[C@H]1O` [FH11706, 7-(3,4-Difluorophenyl)tubercidin], the results for the IC50 in the assay on H9C2 2D cultures (setting [4]), in the assay on H9C2 2D cultures (setting [5]) and with L929 cells were more than 300 µM, 47.7 µM and 118 µM, respectively. In addition, the EC50 in assay [2] (setting [6]) was more than 100 µM. Moreover, the “% of Death Rate” value in assay [3] was 99.25 (98.83 to 99.67) %.
Regarding `Nc1ncnc2c1c(-c1ccc(Cl)c(Cl)c1)cn2[C@@H]1O[C@H](CO)C[C@H]1O` [FH8513, 7-(3,4-dichlorophenyl)-3′-deoxytubercidin], the IC50 in the assay with H9C2 2D cultures (setting [4]) came out at 268 µM; in the assay with H9C2 2D cultures (setting [5]) it was 18.6 µM; in the assay on L929 cells, 22.3 µM. Also, the EC50 in assay [1] is 31.1 ± 0.5 µM; in assay [2] (setting [6]), approximately 100 µM; in assay [2] (read-out: Cas9^ΔNT1 EC50, promastigotes, resazurin-based assay, highest concentration 100 µM) it was 100.5 ± 0.9 µM. Also, in assay [1] (ratio of the EC50 values of the Cas9^ΔNT1 and Cas9^ΔNT1+TcrNT2 strains), the “Lmex^ΔNT1+TcrNT2 Sensitization (fold)” value was found to be 3.2 fold. Also, the “% of Death Rate” value in assay [3] is 99.14 (97.9 to 100) %.
`O=C(Cn1ccnc1[N+](=O)[O-])NCc1ccccc1` [Bz, Benznidazole, reference compound]: the results for the IC50 in the assay with H9C2 2D cultures (setting [4]), in the assay with H9C2 2D cultures (setting [5]) and in the assay on L929 cells were more than 300 µM, more than 200 µM and more than 200 µM, respectively. For the same compound, the “% of Death Rate” value in assay [3] came to 100%.
